Data from US20230183193A1, “4-DIFLUOROMETHYL BENZOYL AMIDES WITH HERBICIDAL ACTION” (BAYER CROPSCIENCE AKTIENGESELLSCHAFT, priority 2017, published 2023).

What was measured:
Avena fatua [1] = experiment: Pre-emergence herbicidal action, AVEFA; format: in vivo
Method in brief: (§1)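 Weed seeds were laid out in sandy loam and covered with soil, then the soil surface was treated with an aqueous suspension or emulsion of the formulated compound containing 0.2% wetting agent. Pots stayed in the greenhouse for 3 weeks before damage was rated visually against untreated plants.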

Viola tricolor [2] = experiment: Pre-emergence herbicidal action, VIOTR; format: in vivo; settings: for Herbicidal efficacy against VIOTR: Table K
Method in brief: as §1

Matricaria inodora = experiment: Pre-emergence herbicidal action, MATIN; format: in vivo; settings: for Herbicidal efficacy against MATIN: Table K
Method in brief: as §1

Amaranthus retroflexus [3] = experiment: Pre-emergence herbicidal action, AMARE; format: in vivo; settings: dosage 320 g/ha, scored visually after 3 weeks vs untreated controls
Method in brief: as §1

Stellaria media [4] = experiment: Post-emergence herbicidal action, STEME; format: in vivo
Method in brief: (§2)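 Visual percent activity relative to untreated controls, assessed about 3 weeks after foliar treatment, where 0% equals control growth and 100% equals death. Compounds, as wettable powders or emulsion concentrates, are sprayed onto one-leaf-stage plants in sandy loam.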

Alopecurus myosuroides [5] = experiment: Pre-emergence herbicidal action, ALOMY; format: in vivo
Method in brief: as §1

ECHCG [6] = experiment: Pre-emergence herbicidal action, ECHCG; format: in vivo, Echinochloa crus-galli
Stellaria media [7] = experiment: Pre-emergence herbicidal action, STEME; format: in vivo; settings: dosage 320 g/ha, scored visually after 3 weeks vs untreated controls
Method in brief: as §1

Cyperus serotinus [8] = experiment: Post-emergence herbicidal action, CYPES; format: in vivo; settings: 5 g/ha
Method: Seeds of monocotyledonous and dicotyledonous weed and crop plants are laid out in sandy loam soil in wood-fiber pots, covered with soil and cultivated in a greenhouse under good growth conditions. 2 to 3 weeks after sowing, the test plants are treated at the one-leaf stage. The compounds of the invention, formulated in the form of wettable powders (WP) or as emulsion concentrates (EC), are then sprayed onto the green parts of the plants in the form of an aqueous suspension or emulsion at a water application rate equating to […], with addition of 0.2% wetting agent. After the test plants have been left to stand in the greenhouse under optimal growth conditions for about 3 weeks, the action of the preparations is assessed visually in comparison to untreated controls (herbicidal action in percent (%): 100% activity=the plants have died, 0% activity=like control plants). […] At the same time, inventive compounds leave Gramineae crops such as barley, wheat, rye, millet/sorghum, corn or rice virtually undamaged when applied post-emergence, even at high active compound dosages. In addition, some substances are also harmless to dicotyledonous crops such as soya, cotton, oilseed rape, sugar beet or potatoes. […]

Avena fatua [9] = experiment: Post-emergence herbicidal action, AVEFA; format: in vivo
Method in brief: as §2

Viola tricolor [10] = experiment: Post-emergence herbicidal action, VIOTR; format: in vivo
Method in brief: as §2

Setaria viridis [11] = experiment: Post-emergence herbicidal action, SETVI; format: in vivo
Method in brief: as §2

Pharbitis purpureum = experiment: Post-emergence herbicidal action, PHBPU; format: in vivo; settings: 80 g/ha, Table D
Method in brief: as §2

Polygonum convolvulus = experiment: Pre-emergence herbicidal action, POLCO; format: in vivo; settings: Table K
Method in brief: as §1

Abutilon theophrasti [12] = experiment: Post-emergence herbicidal action, ABUTH; format: in vivo; settings: 80 g/ha, Table D
Method in brief: as §2

Cyperus serotinus [13] = experiment: Pre-emergence herbicidal action, CYPES; format: in vivo
Method in brief: as §1

Setaria viridis [14] = experiment: Pre-emergence herbicidal action, SETVI; format: in vivo
Method in brief: as §1

Alopecurus myosuroides [15] = experiment: Post-emergence herbicidal action, ALOMY; format: in vivo
Method in brief: as §2

Amaranthus retroflexus [16] = experiment: Post-emergence herbicidal action, AMARE; format: in vivo; settings: 80 g/ha, Table D
Method in brief: as §2

ECHCG [17] = experiment: Post-emergence herbicidal action, ECHCG; format: in vivo; settings: 80 g/ha, Table C
Method in brief: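 Weed and crop plants grown in sandy loam in the greenhouse, treated at the one-leaf stage 2–3 weeks after sowing. Damage scored visually after about 3 weeks vs untreated controls (0% = control, 100% = dead).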

Abutilon theophrasti [18] = experiment: Pre-emergence herbicidal action, ABUTH; format: in vivo; settings: for Herbicidal efficacy against ABUTH: Table K
Method in brief: as §1

[19] = dosage 320 g/ha, scored visually after 3 weeks vs untreated controls

In the case of `Cc1c(C(=O)Nc2nnnn2C)ccc(C(F)F)c1[S+](C)[O-]` (centres unmarked) [Example 1-2], the “Herbicidal efficacy against AVEFA” value (Avena fatua [1]; 20 g/ha) is reported as 20, the “Herbicidal efficacy against AVEFA” value (Avena fatua [1]; 80 g/ha) is reported as 70 and the “Herbicidal efficacy against AVEFA” value (Avena fatua [1]; 320 g/ha) is reported as 100. The “herbicidal activity AVEFA” value (Avena fatua [1]; [19]) was 100%, the “Herbicidal efficacy against VIOTR” value (Viola tricolor [2]; dosage 20 g/ha) was 80 and the “Herbicidal efficacy against VIOTR” value (Viola tricolor [2]; dosage 80 g/ha) was 100. The “Herbicidal efficacy against VIOTR” value (Viola tricolor [2]; dosage 320 g/ha) was 100, the “herbicidal activity VIOTR” value (Viola tricolor [2]; [19]) was 100% and the “Herbicidal efficacy against MATIN” value (Matricaria inodora; dosage 20 g/ha) was 70. The “Herbicidal efficacy against MATIN” value (Matricaria inodora; dosage 80 g/ha) was 100, the “Herbicidal efficacy against MATIN” value (Matricaria inodora; dosage 320 g/ha) was 100 and the “herbicidal activity MATIN” value (Matricaria inodora; [19]) was 100%. For the same molecule, the “herbicidal activity AMARE” value (Amaranthus retroflexus [3]) was 100%, the “Herbicidal efficacy against STEME” value (Stellaria media [4]; 5 g/ha) was 90 and the “Herbicidal efficacy against STEME” value (Stellaria media [4]; 20 g/ha) was 90. For the same molecule, the “Herbicidal activity STEME” value (Stellaria media [4]; 80 g/ha, Table D) was 100%, the “Herbicidal efficacy against ALOMY” value (Alopecurus myosuroides [5]; 20 g/ha) was 70 and the “Herbicidal efficacy against ALOMY” value (Alopecurus myosuroides [5]; 80 g/ha) was 90. The “Herbicidal efficacy against ALOMY” value (Alopecurus myosuroides [5]; 320 g/ha) was 100, the “herbicidal activity ALOMY” value (Alopecurus myosuroides [5]; [19]) was 100% and the “Herbicidal efficacy against ECHCG” value (ECHCG [6]; 20 g/ha) was 40. For the same molecule, the “Herbicidal efficacy against ECHCG” value (ECHCG [6]; 80 g/ha) was 100, the “Herbicidal efficacy against ECHCG” value (ECHCG [6]; 320 g/ha) was 100 and the “Herbicidal activity STEME” value (Stellaria media [7]) was 90%. For the same molecule, the “Herbicidal efficacy against CYPES” value (Cyperus serotinus [8]) was 50, the “Herbicidal efficacy against AVEFA” value (Avena fatua [9]; 5 g/ha) was 70 and the “Herbicidal efficacy against AVEFA” value (Avena fatua [9]; 20 g/ha) was 90. The “herbicidal activity AVEFA” value (Avena fatua [9]; 80 g/ha, Table C) was 100%, the “Herbicidal efficacy against VIOTR” value (Viola tricolor [10]; 5 g/ha) was 100 and the “Herbicidal efficacy against VIOTR” value (Viola tricolor [10]; 20 g/ha) was 100. For the same molecule, the “herbicidal activity VIOTR” value (Viola tricolor [10]; 80 g/ha, Table D) was 100%, the “Herbicidal efficacy against SETVI” value (Setaria viridis [11]; 5 g/ha) was 90 and the “Herbicidal efficacy against SETVI” value (Setaria viridis [11]; 20 g/ha) was 90. For the same molecule, the “herbicidal activity SETVI” value (Setaria viridis [11]; 80 g/ha, Table C) was 90%, the “Herbicidal activity PHBPU” value (Pharbitis purpureum) was 90% and the “Herbicidal efficacy against POLCO” value (Polygonum convolvulus; dosage 80 g/ha) was 70. For the same molecule, the “Herbicidal efficacy against POLCO” value (Polygonum convolvulus; dosage 320 g/ha) was 80, the “herbicidal activity ABUTH” value (Abutilon theophrasti [12]) was 80% and the “Herbicidal efficacy against CYPES” value (Cyperus serotinus [13]; 20 g/ha) was 60. The “Herbicidal efficacy against CYPES” value (Cyperus serotinus [13]; 80 g/ha) was 80, the “Herbicidal efficacy against CYPES” value (Cyperus serotinus [13]; 320 g/ha) was 90 and the “herbicidal activity CYPES” value (Cyperus serotinus [13]; [19]) was 90%. For the same molecule, the “Herbicidal efficacy against SETVI” value (Setaria viridis [14]; 80 g/ha) was 90, the “Herbicidal efficacy against SETVI” value (Setaria viridis [14]; 320 g/ha) was 100 and the “herbicidal activity SETVI” value (Setaria viridis [14]; [19]) was 100%. The “Herbicidal efficacy against ALOMY” value (Alopecurus myosuroides [15]; 5 g/ha) was 60, the “Herbicidal efficacy against ALOMY” value (Alopecurus myosuroides [15]; 20 g/ha) was 80 and the “herbicidal activity ALOMY” value (Alopecurus myosuroides [15]; 80 g/ha, Table C) was 90%. For the same molecule, the “herbicidal activity AMARE” value (Amaranthus retroflexus [16]) was 80%, the “Herbicidal activity ECHCG” value (ECHCG [17]) was 90% and the “Herbicidal efficacy against ABUTH” value (Abutilon theophrasti [18]; dosage 80 g/ha) was 100. The “Herbicidal efficacy against ABUTH” value (Abutilon theophrasti [18]; dosage 320 g/ha) was 100 and the “herbicidal activity ABUTH” value (Abutilon theophrasti [18]; [19]) was 100%.
